Experimental data published in ChEMBL document CHEMBL1146477, “Bioactive constituents from Asparagus cochinchinensis” (J Nat Prod, 2004).

Key:
Col2 = assay: Cytotoxicity against human Col2 cells; format: functional, cell-based
LNCaP = assay: Cytotoxicity against human LNCAP cells; format: functional, cell-based
[1] = Cytotoxicity against human HOG.R5 cells; format: cell-based
Lu1 = assay: Cytotoxicity against human Lu1 cells; format: functional, cell-based
HUVEC = assay: Cytotoxicity against HUVEC; format: cell-based; settings: Homo sapiens
KB = assay: Cytotoxicity against human KB cells; format: functional, cell-based
[2] = system: Human immunodeficiency virus 1; assay: Antiviral activity against HIV1 3B infected in human HOG.R5 cells after 4 days; format: functional, organism-based; settings: Human immunodeficiency virus 1, 3B, HOG.R5, 96 h

IC50 [2] [µM]	SMILES	IC50 (Col2)	IC50 (LNCaP)	CC50 [1] [µM]	IC50 (Lu1)	IC50 (HUVEC)	IC50 (KB)
–	COc1cc(C#C/C=C/COc2ccc(O)cc2)ccc1O	> 20 µg/mL	> 20 µg/mL	< 17	66.5 µM	> 20 µg/mL	40.5 µM
–	C=CC(/C=C\c1ccc(O)cc1)c1ccc(OC)c(O)c1 (stereo not given)	41.4 µM	41.1 µM	12	25.5 µM	58.1 µM	31.9 µM
74.6	C=CC(CC(=O)c1ccc(O)cc1)c1ccc(O)cc1 (stereo not given)	> 20 µg/mL	> 20 µg/mL	76.8	> 20 µg/mL	> 20 µg/mL	> 20 µg/mL
–	C=CC(/C=C\c1ccc(O)cc1)c1ccc(O)c(OC)c1 (stereo not given)	22.3 µM	23.4 µM	24.1	15.9 µM	23.7 µM	31.9 µM
–	C[C@H]1CC[C@@]2(OC1)O[C@H]1C[C@H]3[C@@H]4CC[C@@H]5C[C@@H](O[C@@H]6O[C@H](CO[C@@H]7OC[C@H](O)[C@H](O)[C@H]7O)[C@@H](O[C@@H]7OC[C@H](O)[C@H](O)[C@H]7O)[C@H](O)[C@H]6O[C@@H]6O[C@H](CO)[C@@H](O)[C@H](O)[C@H]6O)CC[C@]5(C)[C@H]4CC[C@]3(C)[C@H]1[C@@H]2C [ASPARACOSIDE]	5.4 µM	10.1 µM	< 10	4.2 µM	4.1 µM	4.8 µM
–	C[C@@H]1CC[C@@]2(OC1)O[C@H]1C[C@H]3[C@@H]4CCC5=CC(=O)CC[C@]5(C)[C@H]4C[C@@H](O)[C@]3(C)[C@@]1(O)[C@@H]2C [ASPARACOSIN A]	> 20 µg/mL	> 20 µg/mL	–	> 20 µg/mL	> 20 µg/mL	24.1 µM
–	COC1(OC)CC[C@@]2(C)[C@H](CC[C@@H]3[C@@H]2CC(=O)[C@@]2(C)[C@H]3C[C@@H]3O[C@]4(CC[C@@H](C)CO4)[C@@H](C)[C@@]32O)C1 [ASPARACOSIN B]	> 20 µg/mL	> 20 µg/mL	–	> 20 µg/mL	> 20 µg/mL	> 20 µg/mL
–	Oc1ccc(C#C/C=C/COc2ccc(O)cc2)cc1 [ASPARENYDIOL]	> 20 µg/mL	> 20 µg/mL	< 18	70.1 µM	> 20 µg/mL	8.5 µM
–	COc1cc(/C=C/CO)ccc1O [CONIFERYL ALCOHOL]	> 20 µg/mL	> 20 µg/mL	–	> 20 µg/mL	> 20 µg/mL	> 20 µg/mL
–	Cc1c2ccncc2c(C)c2c1[nH]c1ccccc12 [ELLIPTECINE]	1.22 µM	3.25 µM	0.08	0.08 µM	0.37 µM	0.16 µM
46.4	C=C[C@H](/C=C\c1ccc(O)cc1)c1ccc(O)cc1 [NYASOL]	> 20 µg/mL	> 20 µg/mL	58.1	> 20 µg/mL	> 20 µg/mL	> 20 µg/mL
